{"source": "patent EP2423181A1", "about": "“Multitarget substituted biphenyl diol derivatives” (PROUS INSTITUTE FOR BIOMEDICAL RESEARCH S.A., priority 2010, dated 2012)", "key": {"[1]": {"molecular_target": "T1, COX-2 (Homo sapiens, UniProt P35354)", "T1 construct": "host or cells: Sf21 insect cells", "T1 sequence (P35354 18-604)": "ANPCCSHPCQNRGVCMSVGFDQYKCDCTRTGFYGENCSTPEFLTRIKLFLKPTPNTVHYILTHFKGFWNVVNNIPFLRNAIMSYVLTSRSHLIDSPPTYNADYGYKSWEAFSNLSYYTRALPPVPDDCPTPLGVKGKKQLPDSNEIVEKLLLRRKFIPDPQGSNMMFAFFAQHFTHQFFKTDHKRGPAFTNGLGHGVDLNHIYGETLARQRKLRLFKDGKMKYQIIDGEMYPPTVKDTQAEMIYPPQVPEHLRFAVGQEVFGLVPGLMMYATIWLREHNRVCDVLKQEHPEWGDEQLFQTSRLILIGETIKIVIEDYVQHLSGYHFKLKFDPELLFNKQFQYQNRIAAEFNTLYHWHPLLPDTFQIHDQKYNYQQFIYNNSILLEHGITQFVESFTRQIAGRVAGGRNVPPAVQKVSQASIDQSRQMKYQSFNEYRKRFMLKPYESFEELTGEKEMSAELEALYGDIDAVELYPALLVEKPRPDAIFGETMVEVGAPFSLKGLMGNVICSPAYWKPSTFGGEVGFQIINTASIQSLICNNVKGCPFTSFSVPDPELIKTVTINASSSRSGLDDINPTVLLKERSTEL", "assay": "COX-2 inhibition (PGE2 enzyme immunoassay)", "assay_type": "biochemical", "conditions": "read-out: % COX-2 inhibition", "experimental": "(§1) The COX-1 inhibitory activity of representative compounds of the invention was determined according to previously reported methods. COX-1 activity was assessed in human platelets using 100 µM arachidonic acid as a substrate and preincubation and incubation times of 15 min at 37 °C in HBSS, 15 mM HEPES pH 7.4 . The quantification method used was enzyme immunoassay determination of PGE2 (Chan, C.C. et al. J Pharmacol Exp Ther, 1999, 290, 551-560; Swinney, D.C. et al. J Biol Chem, 1997, 272, 12393-12398; Warner, T.D. et al. Proc Natl Acad Sci U S A, 1999, 96, 7563-7568; Riendeau, D. et al. Can J Physiol Pharmacol, 1997, 75, 1088-1095). COX-2 inhibitory activity was determined in human recombinant insect Sf21 cells according to references (Warner, T.D. et al., Proc Natl Acad Sci, USA. 1999;96(13):7563-7568; Riendeau, D. et al., Can J Physiol Pharmacol, 1997 ;75(9):1088-1095). Briefly, the COX-2 inhibitory activity was assessed on human recombinant insect Sf21 cells using 0.3 µM arachidonic acid as a substrate and preincubation and incubation times of 15 and 5 min, respectively, at 37 °C in 100 mM Tris-HCl, pH 7.7. The quantification method used was enzyme immunoassay determination of PGE2. Table 11. Inhibition of COX-1 and COX-2 at 10 µM"}, "[2]": {"molecular_target": "T2, COX-1 (Homo sapiens, UniProt P23219)", "T2 construct": "endogenous in cells; host or cells: human platelets", "T2 sequence (P23219 24-599)": "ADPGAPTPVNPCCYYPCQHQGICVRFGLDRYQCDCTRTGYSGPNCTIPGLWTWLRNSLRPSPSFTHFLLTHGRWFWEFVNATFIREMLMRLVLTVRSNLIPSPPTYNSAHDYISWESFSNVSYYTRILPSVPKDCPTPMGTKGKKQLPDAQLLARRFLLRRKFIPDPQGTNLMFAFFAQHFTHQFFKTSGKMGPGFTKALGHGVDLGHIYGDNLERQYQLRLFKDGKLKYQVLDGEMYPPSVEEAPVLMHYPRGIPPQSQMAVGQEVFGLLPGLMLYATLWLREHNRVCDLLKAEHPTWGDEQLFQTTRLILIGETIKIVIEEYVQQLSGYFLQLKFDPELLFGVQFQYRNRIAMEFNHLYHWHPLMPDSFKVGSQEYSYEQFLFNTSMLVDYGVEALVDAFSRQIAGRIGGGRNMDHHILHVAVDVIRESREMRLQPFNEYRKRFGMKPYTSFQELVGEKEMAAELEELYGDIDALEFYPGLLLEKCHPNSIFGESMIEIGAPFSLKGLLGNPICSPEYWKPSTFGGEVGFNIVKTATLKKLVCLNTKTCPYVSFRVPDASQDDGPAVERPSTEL", "assay": "COX-1 inhibition in human platelets (PGE2 enzyme immunoassay)", "assay_type": "biochemical", "conditions": "read-out: % COX-1 Inhibition", "experimental": "as §1"}, "[3]": {"molecular_target": "T3, 5-LO (Homo sapiens, UniProt P09917)", "T3 construct": "host or cells: Sf9 insect cells", "T3 sequence (P09917 1-674)": "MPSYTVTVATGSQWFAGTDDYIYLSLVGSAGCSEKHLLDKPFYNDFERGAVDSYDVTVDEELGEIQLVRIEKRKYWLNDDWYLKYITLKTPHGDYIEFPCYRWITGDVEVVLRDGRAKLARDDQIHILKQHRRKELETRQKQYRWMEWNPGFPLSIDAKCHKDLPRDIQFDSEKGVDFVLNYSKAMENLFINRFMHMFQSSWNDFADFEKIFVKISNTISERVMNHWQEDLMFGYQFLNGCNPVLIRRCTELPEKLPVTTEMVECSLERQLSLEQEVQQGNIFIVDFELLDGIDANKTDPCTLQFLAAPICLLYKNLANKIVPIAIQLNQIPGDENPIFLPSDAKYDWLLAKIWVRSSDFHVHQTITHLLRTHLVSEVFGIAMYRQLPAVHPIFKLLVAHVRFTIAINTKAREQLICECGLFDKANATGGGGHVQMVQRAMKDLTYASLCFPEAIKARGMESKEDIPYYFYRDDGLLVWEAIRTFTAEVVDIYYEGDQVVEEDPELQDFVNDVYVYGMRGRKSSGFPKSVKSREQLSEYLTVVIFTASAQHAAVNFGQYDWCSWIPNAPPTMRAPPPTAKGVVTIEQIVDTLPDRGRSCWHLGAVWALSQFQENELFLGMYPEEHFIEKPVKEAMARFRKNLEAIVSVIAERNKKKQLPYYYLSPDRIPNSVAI", "assay": "5-Lipoxygenase inhibition (LTB4 enzyme immunoassay)", "assay_type": "biochemical", "experimental": "The 5-LO-inhibitory activity of compounds of the invention was determined using previously reported assays. Briefly, lipoxygenase activity was evaluated in human recombinant insect Sf9 cells using 3µM arachidonic acid as a substrate with a preincubation and incubation times of 15 and 5 min respectively at 25°C in a 50 mM Tris-HCl, pH 7.4, 2 mM CaCl2, 1 mM ATP. The quantification method used was enzyme immunoassay determination of LTB4 and the significance criteria were established with a response equal or different of the maximum stimulation or inhibition (Noguchi, M. et al., Eur J Biochem, 1994, 222(2), 285-292; Percival, M.D. et al., Eur J Biochem, 1992, 210(1), 109-117)."}, "[4]": {"assay": "Maximum Tolerated Dose after acute administration", "conditions": "mouse, in vivo, po, mice", "experimental": "The Maximum Tolerated Dose (MTD) in mice was determined for selected compounds. The protocol of the studies was in accordance with the standard guidelines for drug development: • (htp://dtp.nci.nih.gov/branches/btb/acute tox.html). Table 10. Maximum Tolerated Doses in mice after acute i.p. administration"}, "[5]": {"system": "mice", "conditions": "formalin test, active dose of external active reference, cited from earlier work; for Dose (mg / Kg) Early Response: p.o.; for Dose (mg / Kg) Late Response: route not given"}, "[6]": {"system": "tumor melanoma B16-FO", "assay": "Tumor cell proliferation assay (alamarBlue)", "assay_type": "cell-based, murine", "conditions": "Mus musculus", "experimental": "(§2) Changes in cell proliferation were detected based on the ability of viable cells to cause alamarBlue® to change its oxidized (non-fluorescent, blue) to a reduced (fluorescent, red) form. The alamarBlue® reaction allows the quantification of cell proliferation and examination of the metabolic activity of viable cells. Test substances were examined for activity on the proliferation of human or murine tumor cell lines at assay concentrations from 0.01 to 100 µM."}, "[7]": {"system": "tumor colon HCT-116", "assay": "Tumor cell proliferation assay (alamarBlue)", "assay_type": "cell-based", "conditions": "Homo sapiens, HCT-116", "experimental": "as §2"}, "[8]": {"system": "tumor leukaemia K562", "assay": "Tumor cell proliferation assay (alamarBlue)", "assay_type": "cell-based", "conditions": "Homo sapiens, K562", "experimental": "as §2"}, "[9]": {"system": "tumor liver HepG2", "assay": "Tumor cell proliferation assay (alamarBlue)", "assay_type": "cell-based", "conditions": "Homo sapiens, HepG2", "experimental": "as §2"}, "[10]": {"system": "tumor brain U-87 MG", "assay": "Tumor cell proliferation assay (alamarBlue)", "assay_type": "cell-based", "conditions": "Homo sapiens, U-87 MG", "experimental": "as §2"}, "[11]": {"system": "tumor prostate LNCaP-FGC", "assay": "Tumor cell proliferation assay (alamarBlue)", "assay_type": "cell-based", "conditions": "Homo sapiens", "experimental": "as §2"}, "[12]": {"system": "tumor ovary OVCAR-3", "assay": "Tumor cell proliferation assay (alamarBlue)", "assay_type": "cell-based", "conditions": "Homo sapiens, OVCAR-3", "experimental": "as §2"}, "[13]": {"system": "tumor lung A549", "assay": "Tumor cell proliferation assay (alamarBlue)", "assay_type": "cell-based", "conditions": "Homo sapiens, A549", "experimental": "as §2"}, "[14]": {"assay": "log D octanol/water distribution coefficient", "assay_type": "physicochemical", "text": "Lipophilicity has been correlated to various drug properties, affecting permeability, absorption, distribution, plasma protein binding, metabolism, elimination, and toxicity. In contrast to honokiol and magnolol, compounds claimed in the invention, and more particularly those wherein the nitrogen atom in the group -O-CH(phenyl)-(CH2)p-NH-R^3 is protonated and the compound further comprises a pharmaceutically acceptable counter-anion present an optimal log Doctanol/water (range 0-3), indicating good aqueous solubility, permeability, oral absorption, and blood-brain barrier penetration. Experimental studies in murine models have confirmed the results.\nAbsorption, distribution and metabolism studies in vitro with selected examples were performed in order to determine pharmacokinetic parameters such as permeability (or absorption constant), intrinsic clearance (or metabolic clearance), and bioavailability. Physicochemical properties such as water solubility, pKa, log P, and log Doctanol/water, and in vitro experimental studies such as permeability in Caco2 cells, and protein binding in the mouse, stability in murine microsomes, chemical stability at different pH and stability in plasma were evaluated for the pharmacokinetic prediction in mice."}, "[15]": {"molecular_target": "T4, EGFR (Homo sapiens, UniProt P00533)", "T4 construct": "EGF receptor tyrosin-protein kinase activity was assessed in human A431 cells; endogenous in cells; host or cells: human A431 cells", "T4 sequence (P00533 25-1210)": "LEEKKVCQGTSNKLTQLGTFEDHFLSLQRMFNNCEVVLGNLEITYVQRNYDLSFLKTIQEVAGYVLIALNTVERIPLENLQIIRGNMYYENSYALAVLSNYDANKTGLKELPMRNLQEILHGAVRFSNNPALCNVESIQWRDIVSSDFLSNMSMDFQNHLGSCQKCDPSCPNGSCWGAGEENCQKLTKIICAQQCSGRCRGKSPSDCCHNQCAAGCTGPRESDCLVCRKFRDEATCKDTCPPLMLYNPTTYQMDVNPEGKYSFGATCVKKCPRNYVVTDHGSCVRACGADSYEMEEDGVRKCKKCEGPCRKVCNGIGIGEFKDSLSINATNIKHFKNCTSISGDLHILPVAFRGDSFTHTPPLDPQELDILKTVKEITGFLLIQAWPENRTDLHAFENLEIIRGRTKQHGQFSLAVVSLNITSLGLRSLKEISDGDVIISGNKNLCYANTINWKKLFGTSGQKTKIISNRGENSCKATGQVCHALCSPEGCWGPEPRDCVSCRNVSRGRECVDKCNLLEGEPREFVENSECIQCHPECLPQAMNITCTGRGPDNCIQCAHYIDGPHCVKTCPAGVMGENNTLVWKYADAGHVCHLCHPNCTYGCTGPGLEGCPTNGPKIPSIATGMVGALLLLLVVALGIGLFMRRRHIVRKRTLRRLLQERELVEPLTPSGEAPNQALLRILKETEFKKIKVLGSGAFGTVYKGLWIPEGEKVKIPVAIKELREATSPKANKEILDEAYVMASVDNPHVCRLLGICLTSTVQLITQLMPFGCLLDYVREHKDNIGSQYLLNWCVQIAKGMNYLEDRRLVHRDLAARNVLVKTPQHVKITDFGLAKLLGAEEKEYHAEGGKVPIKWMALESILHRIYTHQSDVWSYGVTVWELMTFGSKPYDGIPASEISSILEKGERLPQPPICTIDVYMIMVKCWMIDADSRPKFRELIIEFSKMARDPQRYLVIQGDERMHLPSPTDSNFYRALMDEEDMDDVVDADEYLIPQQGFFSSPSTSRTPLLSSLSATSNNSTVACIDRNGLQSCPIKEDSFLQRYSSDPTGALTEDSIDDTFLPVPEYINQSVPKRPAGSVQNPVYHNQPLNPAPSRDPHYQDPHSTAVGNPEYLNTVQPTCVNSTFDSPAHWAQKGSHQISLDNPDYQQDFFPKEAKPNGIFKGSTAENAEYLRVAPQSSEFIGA", "assay": "EGF receptor tyrosine-protein kinase inhibition (ELISA of Poly[Glu:Tyr-P])", "assay_type": "biochemical", "experimental": "EGF receptor tyrosin-protein kinase activity was assessed in human A431 cells using as a substrate Poly(Glu:Tyr) at 10 µg/ml with a preincubation and incubation times of 15 and 60 min, respectively, at 25°C respectively in 50 mM HEPES pH 7.4, 20 mM MgCl2 and 0.2 mM Na3VO4. An ELISA quantification method of Poly[Glu:Tyr-P] was employed (Cheng, K. and Koland, J.G. J Biol Chem, 1996, 271, 311-318). Table 5. Inhibition of EGFR at 10 µM"}, "[16]": {"system": "mice", "assay": "Formalin test (antinociceptive activity)", "assay_type": "in vivo", "conditions": "formalin test, dose 10 mg/Kg i.p.", "experimental": "The chemical irritant formalin test is used as a chronic pain model in animals. The s.c. administration of formalin to the paw of a mouse produces a biphasic nociceptive behavioral response, an early response (0-5 min after injection) and a late response (20-30 min after injection) (Hunskaar, S., Fasmer, O.B., Hole, K. Formalin test in mice, a useful technique for evaluating mild analgesics. J Neurosci Methods, 1985 ;14(1):69-76).\nAspirine and paracetamol are included as external active references in early and late response. Table 12. Early and late response inhibition in the formalin test."}, "[17]": {"conditions": "5-LO, at 10 µM, read-out: % Inhibition"}}, "note": "Where a name gives a salt, the structure may show the parent alone. Read-outs that look alike come from different tables or passages of the source.", "data": [{"smiles": "C=CCc1ccc(OC(CCNC)c2ccccc2)c(-c2ccc(O)c(CC=C)c2)c1.Cl", "note": "(stereo not drawn) [Example 4, 3,5'-Diallyl-2'-[3-(methylamino)-1-phenylpropoxy]biphenyl-4-ol hydrochloride]", "values": [{"measurement": "inhibition at 10 µM", "setting": "[1]; at 10 µM", "result": 0, "unit": "%"}, {"measurement": "inhibition at 10 µM", "setting": "[2]; at 10 µM, human platelets", "result": 81, "unit": "%"}, {"measurement": "inhibition at 10 µM", "setting": "[3]; [17]", "result": 100, "unit": "%"}, {"measurement": "MTD", "setting": "[4]", "result": 30, "unit": "mg/kg"}]}, {"smiles": "CC(=O)Nc1ccc(O)cc1", "note": "[Paracetamol]", "values": [{"measurement": "Dose (mg / Kg) Early Response", "setting": "[5]", "result": "200-400 p.o. mg / Kg"}, {"measurement": "Dose (mg / Kg) Late Response", "setting": "[5]", "result": "300 to 400", "unit": "mg/kg"}]}, {"smiles": "CCCc1ccc(O)c(-c2ccc(OC(CCNC)c3ccccc3)c(CCC)c2)c1", "note": "(stereo not drawn) [Example 6, 4'-[3-(Methylamino)-1-phenylpropoxy]-3',5-dipropylbiphenyl-2-ol hydrochloride]", "values": [{"measurement": "inhibition at 10 µM", "setting": "[3]; [17]", "result": 100, "unit": "%"}]}, {"smiles": "C=CCc1ccc(O)c(-c2cc(CC=C)ccc2O)c1", "note": "[Magnolol, reference compound]", "values": [{"measurement": "inhibition at 10 µM", "setting": "[1]", "result": 95, "unit": "%"}, {"measurement": "inhibition at 10 µM", "setting": "[2]", "result": 21, "unit": "%"}, {"measurement": "IC50", "setting": "[6]", "result": 28, "unit": "µM"}, {"measurement": "inhibition at 10 µM", "setting": "[3]", "result": 67, "unit": "%"}, {"measurement": "IC50", "setting": "[7]", "result": 17, "unit": "µM"}, {"measurement": "IC50", "setting": "[8]", "result": 48, "unit": "µM"}, {"measurement": "IC50", "setting": "[9]", "result": 12, "unit": "µM"}, {"measurement": "IC50", "setting": "[10]", "result": 48, "unit": "µM"}, {"measurement": "IC50", "setting": "[11]", "result": 5.1, "unit": "µM"}, {"measurement": "IC50", "setting": "[12]", "result": 23, "unit": "µM"}, {"measurement": "IC50", "setting": "[13]", "result": 19, "unit": "µM"}, {"measurement": "logDoctanol/water", "setting": "[14]", "result": 5.25}, {"measurement": "inhibition at 10 µM", "setting": "[15]", "result": -26, "unit": "%"}]}, {"smiles": "CC(=O)Oc1ccccc1C(=O)O", "note": "[Aspirin]", "values": [{"measurement": "Dose (mg / Kg) Early Response", "setting": "[5]", "result": "200-400 p.o. mg / Kg"}, {"measurement": "Dose (mg / Kg) Late Response", "setting": "[5]", "result": "300 to 400", "unit": "mg/kg"}]}, {"smiles": "CN1CC[C@]23c4c5ccc(O)c4O[C@H]2[C@@H](O)C=C[C@H]3[C@H]1C5", "note": "[Morphine, reference compound]", "values": [{"measurement": "Early Response", "setting": "[16]; early response 0-5 min", "result": "active"}, {"measurement": "Late Response", "setting": "[16]; late response 20-30 min", "result": "active"}]}]}
